Assay results taken from patent publication US8530446B2, “Oral composition containing difructose anhydride” (Fancl Corporation, priority 2004, dated 2013).

Tested on: equol production in the intestinal tract
Assay: Ability of DFA to increase equol production in the intestinal tract of rats (plasma equol by HPLC-UV)
Type: in vivo, Wistar-ST rats
Conditions: 20 days
Description: The ability of DFA to increase equol production in the intestinal tract was examined.
Twenty-seven male Wistar-ST rats (six weeks old) were raised with a solid feed for three days, after which they were divided into three groups by weight so that each group consisted of nine rats. Each group was given a base feed containing 0.25% of a food product containing 40% isoflavone (basal diet group), a feed consisting of the base feed whose sucrose was substituted by 3% with DFAIII (DFAIII group), or a feed consisting of the base feed whose sucrose was substituted by 3% with fructo-oligosaccharide (FOS group), and raised for twenty days. On day 20, blood was taken from each rat through the caudal vein and the equol level in blood plasma was measured using the HPLC-UV method.
In the table, a and b indicate that values denoted by different symbols have a significant difference between them.

OC[C@H]1O[C@@]2(CO[C@]3(CO)O[C@H](CO)[C@@H](O)[C@@H]3O2)[C@@H](O)[C@@H]1O [DFAIII, difructose anhydride]
Equol (equol level in blood plasma) (male Wistar-ST rats, n=9/group, base feed with 0.25% of food product containing 40% isoflavone, sucrose substituted by 3% with test substance, caudal vein blood on day 20, HPLC-UV): 17.7 ± 1.81 µmol

OC[C@H]1O[C@@]2(CO[C@]3(CO)O[C@H](CO)[C@@H](O)[C@@H]3O2)[C@@H](O)[C@@H]1O [DFA, difructose anhydride]
Effect of ingestion on equol level in blood plasma (in words) (rats, 3% in isoflavone-containing feed): caused the equol level in blood plasma to rise
